Details: 101.33 kPa, Liquid, Vibrating wire viscometry

CC(C)CCCC(C)CCCC(C)CCCCC(C)CCCC(C)CCCC(C)C (configuration not stated) [2,6,10,15,19,23-hexamethyltetracosane]
Details | viscosity [mPa·s]
283.77 K | 60.2
288.47 K | 46.1
293.29 K | 35.59
298.12 K | 27.95
303.07 K | 22.45
308.09 K | 18.3
313.13 K | 15
318.17 K | 12.5
323.19 K | 10.57
328.26 K | 8.99
333.2 K | 7.8
338.18 K | 6.81
343.07 K | 6
348.08 K | 5.32
353.08 K | 4.72
358.13 K | 4.2
362.98 K | 3.78

CCCCC(CC)COC(=O)c1ccccc1C(=O)OCC(CC)CCCC (configuration not stated) [bis(2-ethylhexyl) 1,2-benzenedicarboxylate]
Details | viscosity [mPa·s]
288.53 K | 110.7
293.38 K | 78.73
298.29 K | 57.94
303.33 K | 43.27
308.23 K | 33.17
313.18 K | 26.13
317.99 K | 21.08
323.02 K | 16.96
328.12 K | 13.91
333.19 K | 11.62
337.71 K | 9.903
343.53 K | 8.268
348.48 K | 7.158
353.68 K | 6.199

CCCCC(CC)COC(=O)CCCCCCCCC(=O)OCC(CC)CCCC (configuration not stated) [bis(2-ethylhexyl) decanedioate]
Details | viscosity [mPa·s]
284.06 K | 31.95
288.71 K | 25.84
293.37 K | 21.14
298.26 K | 17.42
303.1 K | 14.55
307.9 K | 12.37
313.24 K | 10.4
318.26 K | 9.023
323.17 K | 7.865
328.26 K | 6.878
333.2 K | 6.067
338.16 K | 5.435
342.81 K | 4.883
348.07 K | 4.38
352.98 K | 3.987
358.09 K | 3.626
